Starred links: 1 amine or outer side, 2 acyl side, 3 side chain; linkers in the order of their positions; H or OH if unused. Positions of bridges follow the written chain, without caps; N, C: chain ends. Non-standard residues stand in square brackets, D forms with d. Residues, ends and D or L forms follow the SMILES beside them. 2Furoyl(5-aminomethyl) = O=C(c1ccc(CN[*:1])o1)[*:2]; NHCH2C6H4(p)CH2CH2NH = c1cc(CN[*:1])ccc1CCN[*:2]; X61 = O=C(CCCCC(=O)[*:1])NCc1ccc(CC(=O)[*:2])cc1; Ala(imidazol-2-yl) = N[C@@H](Cc1ncc[nH]1)C(=O)O; Trp(5-OH) = N[C@@H](Cc1c[nH]c2ccc(O)cc12)C(=O)O; Phe(4-COOH) = N[C@@H](Cc1ccc(C(=O)O)cc1)C(=O)O; Trp(5-F) = N[C@@H](Cc1c[nH]c2ccc(F)cc12)C(=O)O; Phac(3-amino) = O=C(Cc1cccc(N[*:1])c1)[*:2]; Nle(6-COOH) = N[C@@H](CCCCC(=O)O)C(=O)O; X4 = O=C(CCSCc1cccc(CSCCN[*:1])c1)[*:2]; mXylylene = c1cc(C[*:1])cc(C[*:2])c1; AEF = NCCOc1ccc(C[C@H](N)C(=O)O)cc1; Adipoyl = O=C(CCCCC(=O)[*:2])[*:1]; X34 = O=C(CCC1CCN([*:1])CC1)[*:2]; Asu = N[C@@H](CCCCCC(=O)O)C(=O)O; Aad = N[C@@H](CCCC(=O)O)C(=O)O; αMeP = C[C@@]1(C(=O)O)CCCN1; Dap = NC[C@H](N)C(=O)O; AEA = NCCOCC(=O)O; Mpa = O=C(O)CCS

Chain of PCSK9 (Q8NBP7 153-692): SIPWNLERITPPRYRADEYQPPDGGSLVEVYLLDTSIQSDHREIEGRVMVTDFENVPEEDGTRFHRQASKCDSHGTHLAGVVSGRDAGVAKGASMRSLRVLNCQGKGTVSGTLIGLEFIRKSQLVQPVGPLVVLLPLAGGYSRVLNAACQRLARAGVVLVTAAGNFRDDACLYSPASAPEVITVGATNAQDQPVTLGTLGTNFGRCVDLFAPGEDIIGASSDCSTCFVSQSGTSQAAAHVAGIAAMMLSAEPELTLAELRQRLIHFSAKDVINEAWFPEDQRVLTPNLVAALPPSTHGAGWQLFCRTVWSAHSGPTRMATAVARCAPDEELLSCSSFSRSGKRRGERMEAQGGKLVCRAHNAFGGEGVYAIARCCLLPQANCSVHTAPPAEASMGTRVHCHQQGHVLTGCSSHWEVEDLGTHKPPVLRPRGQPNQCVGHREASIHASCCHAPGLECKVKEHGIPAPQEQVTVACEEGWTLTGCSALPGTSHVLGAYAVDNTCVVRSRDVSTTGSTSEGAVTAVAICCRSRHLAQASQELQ

The target of the assay is PCSK9 (Homo sapiens (Human), UniProt Q8NBP7). Kind of assay: PCSK9 Alexa FRET Standard assay (displacement of AlexaFluor647 tagged cyclic peptide Reagent A). As to conditions: PCSK9 Alexa FRET Standard assay, 0.5 nM PCSK9, 20 nM AF cyclic peptide Reagent A; read-out: IC50. It is filed as binding. The gist of the method:
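TR-FRET displacement: 0.5 nM biotinylated PCSK9 with 1.25 nM Strep-Eu and 20 nM AlexaFluor-tagged cyclic peptide (final) in 50 mM HEPES pH 7.4, 0.15 M NaCl, 5 mM CaCl2, 0.01% BSA, 0.01% P20, ≥2 h at room temperature. IC50 from sigmoidal fit, converted to Ki via peptide KD; falling Eu counts flagged false positives.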
One may read the IC50 as the concentration needed to halve the response being measured. Turning to `COc1ccc(C[C@@H]2NC(=O)[C@H](Cc3cnc[nH]3)NC(=O)[C@H](CC(=O)O)NC(=O)[C@H](Cc3c[nH]c4ccc(F)cc34)NC(=O)[C@H](Cc3c[nH]c4ccc(F)cc34)NC(=O)[C@@H](C)NC(=O)CCC3CCN(CC3)C(=O)c3ccc(cc3)C[C@@H](C(N)=O)NC(=O)[C@]3(C)CCCN3C2=O)cc1` [Compound 389] ([X34][dA][Trp(5-F)][Trp(5-F)]DHY(Me)[αMeP][Phe(4-COOH)]-NH2; lactam N-9), the IC50 was 21 to 50 µM.
In the case of `COc1ccc(C[C@@H]2NC(=O)[C@H](Cc3ncc[nH]3)NC(=O)[C@H](CC(=O)O)NC(=O)[C@H](Cc3c[nH]c4ccc(F)cc34)NC(=O)[C@H](Cc3c[nH]c4ccc(F)cc34)NC(=O)[C@@H](C)NC(=O)[C@H](C)NC(=O)CCSCc3cccc(c3)CSCCNC(=O)[C@]3(C)CCCN3C2=O)cc1` [Compound 407] (cyclo(A[dA][Trp(5-F)][Trp(5-F)]D[Ala(imidazol-2-yl)]Y(Me)[αMeP][X4])), the IC50 is 21 to 50 µM.
As for `COc1ccc(C[C@@H]2NC(=O)[C@H](Cc3cnc[nH]3)NC(=O)[C@H](CC(=O)O)NC(=O)[C@H](Cc3c[nH]c4ccc(F)cc34)NC(=O)[C@H](Cc3c[nH]c4ccc(F)cc34)NC(=O)[C@@H](C)NC(=O)CCCCC(=O)NCCOc3ccc(cc3)C[C@@H](C(N)=O)NC(=O)[C@]3(C)CCCN3C2=O)cc1` [Compound 410] ([dA][Trp(5-F)][Trp(5-F)]DHY(Me)[αMeP][AEF]-NH2; linker N-8 via Adipoyl), the figure is 1 to 12.1 µM; as for `COc1ccc(C[C@@H]2NC(=O)[C@H](Cc3cnc[nH]3)NC(=O)[C@H](CC(=O)O)NC(=O)[C@H](Cc3c[nH]c4ccc(F)cc34)NC(=O)[C@H](Cc3c[nH]c4ccc(F)cc34)NC(=O)[C@@H](C)NC(=O)[C@H](CCCCN)NC(=O)[C@@H](NC(C)=O)CC(=O)NCc3ccc(cc3)CCNC(=O)[C@]3(C)CCCN3C2=O)cc1` [Compound 411] (Ac-DK[dA][Trp(5-F)][Trp(5-F)]DHY(Me)[αMeP]; linker 1-C via NHCH2C6H4(p)CH2CH2NH), 1 to 12.1 µM.
In the case of `COc1ccc(C[C@@H]2NC(=O)[C@H](Cc3cnc[nH]3)NC(=O)[C@H](CC(=O)O)NC(=O)[C@H](Cc3c[nH]c4ccc(F)cc34)NC(=O)[C@H](Cc3c[nH]c4ccc(F)cc34)NC(=O)[C@@H](C)NC(=O)CCCCC(=O)NCc3ccc(cc3)CC(=O)NC[C@@H](C(N)=O)NC(=O)[C@]3(C)CCCN3C2=O)cc1` [Compound 412] ([dA][Trp(5-F)][Trp(5-F)]DHY(Me)[αMeP][Dap]-NH2; linker N-8 via X61) it was 1 to 12.1 µM; in that of `COc1ccc(C[C@@H]2NC(=O)[C@H](Cc3cnc[nH]3)NC(=O)[C@H](CC(=O)O)NC(=O)[C@H](Cc3c[nH]c4ccc(F)cc34)NC(=O)[C@H](Cc3c[nH]c4ccc(F)cc34)NC(=O)[C@@H](C)NC(=O)Cc3cccc(c3)NC(=O)C[C@@H](C(=O)O)NC(=O)[C@]3(C)CCCN3C2=O)cc1` [Compound 413] ([Phac(3-amino)][dA][Trp(5-F)][Trp(5-F)]DHY(Me)[αMeP]D-OH; lactam N-9), 21 to 50 µM.
In the case of `C[C@@]12CCCN1C(=O)[C@H](Cc1ccc(O)cc1)NC(=O)[C@H](Cc1cnc[nH]1)NC(=O)[C@H](CC(=O)O)NC(=O)[C@H](Cc1c[nH]c3ccc(F)cc13)NC(=O)[C@H](Cc1c[nH]c3ccc(O)cc13)NC(=O)CNC(=O)[C@H](CCCCN)NC(=O)CCSCc1cccc(c1)CSC[C@@H](C(N)=O)NC2=O` [Compound 414] ([Mpa]KG[Trp(5-OH)][Trp(5-F)]DHY[αMeP]C-NH2; linker 1-10 via mXylylene) it was 0.1 to 1 µM; in that of `C[C@@]12CCCN1C(=O)[C@H](Cc1ccc(O)cc1)NC(=O)[C@H](Cc1cnc[nH]1)NC(=O)[C@H](CC(=O)O)NC(=O)[C@H](Cc1c[nH]c3ccc(O)cc13)NC(=O)[C@H](Cc1c[nH]c3ccc(O)cc13)NC(=O)CNC(=O)[C@H](CCCCN)NC(=O)CCSCc1cccc(c1)CSC[C@@H](C(N)=O)NC2=O` [Compound 415] ([Mpa]KG[Trp(5-OH)][Trp(5-OH)]DHY[αMeP]C-NH2; linker 1-10 via mXylylene), 0.00011 to 0.1 µM.
Regarding `CC(=O)N[C@@H]1CCCC/C=C/CO[C@H]2C[C@@H](C(N)=O)N(C2)C(=O)[C@H](Cc2ccc(O)cc2)NC(=O)[C@H](Cc2cnc[nH]2)NC(=O)[C@H](CC(=O)O)NC(=O)[C@H](Cc2c[nH]c3ccc(F)cc23)NC(=O)[C@H](Cc2c[nH]c3ccc(F)cc23)NC(=O)CCNC1=O` [Compound 418], the IC50 lay within 21 to 50 µM.
In the case of `COc1ccc(C[C@@H]2NC(=O)[C@H](Cc3cnc[nH]3)NC(=O)[C@H](CC(=O)O)NC(=O)[C@H](Cc3c[nH]c4ccc(F)cc34)NC(=O)[C@H](Cc3c[nH]c4ccc(F)cc34)NC(=O)[C@@H](C)NC(=O)[C@H](CCCCN)NC(=O)[C@@H](NC(C)=O)CCC(=O)NCc3ccc(cc3)CCNC(=O)[C@]3(C)CCCN3C2=O)cc1` [Compound 421] (Ac-EK[dA][Trp(5-F)][Trp(5-F)]DHY(Me)[αMeP]; linker 1-C via NHCH2C6H4(p)CH2CH2NH) it was 0.1 to 1 µM.
Regarding `COc1ccc(C[C@@H]2NC(=O)[C@H](Cc3cnc[nH]3)NC(=O)[C@H](CC(=O)O)NC(=O)[C@H](Cc3c[nH]c4ccc(F)cc34)NC(=O)[C@H](Cc3c[nH]c4ccc(F)cc34)NC(=O)[C@@H](C)NC(=O)[C@H](CNC(=O)COCCN)NC(=O)CCSCc3cccc(c3)CSCCNC(=O)[C@]3(C)CCCN3C2=O)cc1` [Compound 424] (cyclo(DHY(Me)[αMeP][X4][Dap](AEA)[dA][Trp(5-F)][Trp(5-F)])), the IC50 was 0.00011 to 0.1 µM.
As for `COc1ccc(C[C@@H]2NC(=O)[C@H](Cc3cnc[nH]3)NC(=O)[C@H](CC(=O)O)NC(=O)[C@H](Cc3c[nH]c4ccc(F)cc34)NC(=O)[C@H](Cc3c[nH]c4ccc(F)cc34)NC(=O)[C@@H](C)NC(=O)[C@H](CCCCC(=O)O)NC(=O)CCSCc3cccc(c3)CSCCNC(=O)[C@]3(C)CCCN3C2=O)cc1` [Compound 425] (cyclo(DHY(Me)[αMeP][X4][Nle(6-COOH)][dA][Trp(5-F)][Trp(5-F)])), the figure is 0.00011 to 0.1 µM.
In the case of `COc1ccc(C[C@@H]2NC(=O)[C@H](Cc3cnc[nH]3)NC(=O)[C@H](CC(=O)O)NC(=O)[C@H](Cc3c[nH]c4ccc(F)cc34)NC(=O)[C@H](Cc3c[nH]c4ccc(F)cc34)NC(=O)[C@@H](C)NC(=O)[C@H](CCCCCC(=O)O)NC(=O)CCSCc3cccc(c3)CSCCNC(=O)[C@]3(C)CCCN3C2=O)cc1` [Compound 426] (cyclo([Asu][dA][Trp(5-F)][Trp(5-F)]DHY(Me)[αMeP][X4])) it was 1 to 12.1 µM; in that of `COc1ccc(C[C@@H]2NC(=O)[C@H](Cc3cnc[nH]3)NC(=O)[C@H](CC(=O)O)NC(=O)[C@H](Cc3c[nH]c4ccc(F)cc34)NC(=O)[C@H](Cc3c[nH]c4ccc(F)cc34)NC(=O)[C@@H](C)NC(=O)[C@H](CCCC(=O)O)NC(=O)CCSCc3cccc(c3)CSCCNC(=O)[C@]3(C)CCCN3C2=O)cc1` [Compound 427] (cyclo([Aad][dA][Trp(5-F)][Trp(5-F)]DHY(Me)[αMeP][X4])), 21 to 50 µM; in that of `C[C@@]12CCCN1C(=O)[C@H](Cc1ccc(O)cc1)NC(=O)[C@H](Cc1cnc[nH]1)NC(=O)[C@H](CC(=O)O)NC(=O)[C@H](Cc1c[nH]c3ccc(F)cc13)NC(=O)[C@H](Cc1c[nH]c3ccc(F)cc13)NC(=O)C1=CC=C(CNC(=O)CCSCc3cccc(c3)CSC[C@@H](C(N)=O)NC2=O)O1` [Compound 428] ([Mpa][2Furoyl(5-aminomethyl)][Trp(5-F)][Trp(5-F)]DHY[αMeP]C-NH2; linker 1-9 via mXylylene), 21 to 50 µM.

The values above are taken from patent US11530244B2, “Cyclic polypeptides for PCSK9 inhibition” (priority 2018, dated 2022).
